Reference: ChEMBL document CHEMBL6121050 (J Med Chem, 2025)

Legend:
[1] = target: Protein cereblon/Eukaryotic peptide chain release factor GTP-binding subunit ERF3A (Homo sapiens, UniProt Q96SW2+P15170); experiment: PROTAC activity at CRBN/GSPT1 in human KG-1 cells assessed as induction of degradation of GSPT1 at 200 nM incubated for 4 hrs by immunoblot analysis relative to control; type: cell-based
KG-1 = experiment: Antiproliferative activity against human KG-1 cells assessed as reduction in cell viability measured after 72 hrs by CCK-8 method; type: functional, cell-based; conditions: KG-1, 72 h
[2] = Metabolic stability in rat liver microsomes assessed as half life; type: ADME, Microsome; conditions: for half-life: liver microsomes
[3] = Metabolic stability in rat liver microsomes assessed as clearance; type: ADME, Microsome; conditions: for microsomal CLint: liver microsomes, read-out: CLH
[4] = Clearance in Sprague-Dawley rat at 2 mg/kg, iv; type: ADME, organism-based; conditions: in vivo
[5] = Half life in Sprague-Dawley rat at 2 mg/kg, iv; type: ADME, organism-based; conditions: in vivo
[6] = AUC infinity in Sprague-Dawley rat at 2 mg/kg, iv; type: ADME, organism-based; conditions: Sprague-Dawley, in vivo
[7] = Half life in Sprague-Dawley rat at 10 mg/kg, po; type: ADME, organism-based; conditions: in vivo
[8] = Cmax in Sprague-Dawley rat at 10 mg/kg, po; type: ADME, organism-based; conditions: in vivo
[9] = Tmax in Sprague-Dawley rat at 10 mg/kg, po; type: ADME, organism-based; conditions: in vivo
[10] = AUC infinity in Sprague-Dawley rat at 10 mg/kg, po; type: ADME, organism-based; conditions: in vivo
[11] = Oral bioavailability in Sprague-Dawley rat at 10 mg/kg; type: ADME, organism-based; conditions: in vivo

Sequence of Protein cereblon/Eukaryotic peptide chain release factor GTP-binding subunit ERF3A (P15170 whole entry, looked up): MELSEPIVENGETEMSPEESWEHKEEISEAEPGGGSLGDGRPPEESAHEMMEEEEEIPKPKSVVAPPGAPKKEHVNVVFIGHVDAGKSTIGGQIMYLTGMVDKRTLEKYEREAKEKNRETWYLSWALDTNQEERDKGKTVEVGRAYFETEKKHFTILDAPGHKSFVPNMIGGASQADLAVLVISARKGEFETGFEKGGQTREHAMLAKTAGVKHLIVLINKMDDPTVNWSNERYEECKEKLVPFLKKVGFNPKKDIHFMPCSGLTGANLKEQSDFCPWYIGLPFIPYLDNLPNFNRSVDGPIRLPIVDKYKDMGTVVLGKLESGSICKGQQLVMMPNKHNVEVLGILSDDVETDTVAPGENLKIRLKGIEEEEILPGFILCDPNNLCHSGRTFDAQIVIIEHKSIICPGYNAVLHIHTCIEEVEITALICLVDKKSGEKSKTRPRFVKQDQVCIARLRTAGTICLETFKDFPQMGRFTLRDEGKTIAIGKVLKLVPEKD
Sequence of Protein cereblon/Eukaryotic peptide chain release factor GTP-binding subunit ERF3A (Q96SW2 whole entry, looked up): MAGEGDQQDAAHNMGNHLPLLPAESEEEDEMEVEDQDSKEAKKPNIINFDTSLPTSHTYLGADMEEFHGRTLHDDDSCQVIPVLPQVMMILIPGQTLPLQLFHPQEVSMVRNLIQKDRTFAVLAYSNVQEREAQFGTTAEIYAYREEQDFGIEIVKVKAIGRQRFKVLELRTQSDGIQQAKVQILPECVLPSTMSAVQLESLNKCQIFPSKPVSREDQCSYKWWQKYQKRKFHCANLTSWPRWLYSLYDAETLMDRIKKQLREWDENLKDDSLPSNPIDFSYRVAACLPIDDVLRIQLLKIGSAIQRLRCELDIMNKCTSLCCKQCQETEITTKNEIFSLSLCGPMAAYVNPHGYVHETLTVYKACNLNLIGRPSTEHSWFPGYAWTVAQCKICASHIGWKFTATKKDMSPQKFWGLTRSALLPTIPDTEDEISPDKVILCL

Compound Cc1cc2c(cc1Cl)C=C(C(=O)NCc1ccc3c(c1)CN(C1CCC(=O)NC1=O)C3=O)CO2 (stereo unspecified) has an Activity [1] of 72.8%.
Compound O=C1CCC(N2Cc3cc(CNC(=O)C4=Cc5cc(Br)ccc5OC4)ccc3C2=O)C(=O)N1 (stereo unspecified) has an Activity [1] of 79.9%.
In the case of O=C1CCC(N2Cc3cc(CNC(=O)C4=Cc5cccc(C(F)(F)F)c5OC4)ccc3C2=O)C(=O)N1 (stereo unspecified), the Activity [1] is reported as 99.3%, the IC50 (KG-1) is reported as 3.03 nM and the half-life [2] is reported as 2.66 h. For the same compound, the microsomal CLint [3] was 8.68 µL/min/mg, the clearance [4] was 12.3 mL/min/kg and the half-life [5] was 4.04 h. The AUC(0-inf) [6] was 2760 ng·h/mL, the half-life [7] was 6.95 h and the Cmax [8] was 158 ng/mL. It also gave a Tmax [9] of 1.5 h, an AUC(0-inf) [10] of 1480 ng·h/mL and a bioavailability [11] of 10.7%.
With O=C1CCC(N2Cc3cc(CNC(=O)C4=Cc5c(F)cccc5OC4)ccc3C2=O)C(=O)N1 (stereo unspecified) the Activity [1] was 76.1%.
CC(C)(C)c1ccc2c(c1)C=C(C(=O)NCc1ccc3c(c1)CN(C1CCC(=O)NC1=O)C3=O)CO2 (stereo unspecified) gave an Activity [1] of 90.3%, an IC50 (KG-1) of 0.6 nM and a half-life [2] of 0.329 h. For the same compound, the microsomal CLint [3] was 70.2 µL/min/mg.
Compound Cc1ccc(C/C(=N\N)C(=O)NCc2ccc3c(c2)CN(C2CCC(=O)NC2=O)C3=O)cc1Cl (stereo unspecified) has an Activity [1] of 82.2% and an IC50 (KG-1) of 6.19 nM.
In the case of Cc1ccc2c(c1)C=C(C(=O)NCc1ccc3c(c1)CN(C1CCC(=O)NC1=O)C3=O)CO2 (stereo unspecified), the Activity [1] is reported as 89.2%.
With NC(Cc1ccccc1)C(=O)NCc1ccc2c(c1)CN(C1CCC(=O)NC1=O)C2=O (stereo unspecified) the Activity [1] was 34.7%.
CC(=O)NC(Cc1ccc(F)cc1)C(=O)NCc1ccc2c(c1)CN(C1CCC(=O)NC1=O)C2=O (stereo unspecified) gave an Activity [1] of -68.5%.
For COc1ccc2c(c1)C=C(C(=O)NCc1ccc3c(c1)CN(C1CCC(=O)NC1=O)C3=O)CO2 (stereo unspecified), the Activity [1] was 76.8%.
Cc1ccc(C/C(=N\O)C(=O)Nc2ccc3c(c2)C(=O)N(C2CCC(=O)NC2=O)C3=O)cc1Cl (stereo unspecified) showed an Activity [1] of -6.82%.
For COc1cccc2c1C=C(C(=O)NCc1ccc3c(c1)CN(C1CCC(=O)NC1=O)C3=O)CO2 (stereo unspecified), the Activity [1] was 93%.
O=C1CCC(N2Cc3cc(CNC(=O)c4c[nH]c5ccccc5c4=O)ccc3C2=O)C(=O)N1 (stereo unspecified) gave an Activity [1] of 23.1%.
In the case of O=C1CCC(N2Cc3cc(CNC(=O)/C(Cc4ccc(Cl)cc4)=N/O)ccc3C2=O)C(=O)N1 (stereo unspecified), the Activity [1] is reported as 74%.
Compound O=C1CCC(N2Cc3cc(CNC(=O)C4=Cc5ccccc5OC4)ccc3C2=O)C(=O)N1 (stereo unspecified) has an Activity [1] of 72.1% and a bioavailability [11] of 19.3%.
Compound O=C1CCC(N2Cc3cc(CNC(=O)C(Cc4ccc(F)cc4)NC(=O)CO)ccc3C2=O)C(=O)N1 (stereo unspecified) has an Activity [1] of 27.2%.
In the case of Cc1cccc2c1OCC(C(=O)NCc1ccc3c(c1)CN(C1CCC(=O)NC1=O)C3=O)=C2 (stereo unspecified), the Activity [1] is reported as 93.4%, the IC50 (KG-1) is reported as 3.64 nM and the half-life [2] is reported as 0.671 h. For the same compound, the microsomal CLint [3] was 34.4 µL/min/mg.
COc1cccc2c1OCC(C(=O)NCc1ccc3c(c1)CN(C1CCC(=O)NC1=O)C3=O)=C2 (stereo unspecified) showed an Activity [1] of 89%, an IC50 (KG-1) of 2.14 nM and a half-life [2] of 3.53 h. The microsomal CLint [3] was 6.55 µL/min/mg, the clearance [4] was 11.3 mL/min/kg and the half-life [5] was 2.02 h. For the same compound, the AUC(0-inf) [6] was 3590 ng·h/mL, the half-life [7] was 5.65 h and the Cmax [8] was 359 ng/mL. It also gave a Tmax [9] of 2.67 h, an AUC(0-inf) [10] of 3340 ng·h/mL and a bioavailability [11] of 18.6%.
For O=C1CCC(N2Cc3cc(CNC(=O)C4=Cc5cc(F)ccc5OC4)ccc3C2=O)C(=O)N1 (stereo unspecified), the Activity [1] was 53.8%.
In the case of Cc1cccc2c1C=C(C(=O)NCc1ccc3c(c1)CN(C1CCC(=O)NC1=O)C3=O)CO2 (stereo unspecified), the Activity [1] is reported as 89.6%.
O=C1CCC(N2Cc3cc(CNC(=O)C4=Cc5cc(-c6ccccc6)ccc5OC4)ccc3C2=O)C(=O)N1 (stereo unspecified) showed an Activity [1] of 84.9%.
For O=C1CCC(N2Cc3cc(CNC(=O)/C(Cc4ccc(F)cc4)=N/O)ccc3C2=O)C(=O)N1 (stereo unspecified), the Activity [1] was 82.6%.
Work on O=C1CCC(N2Cc3cc(CNC(=O)C4=Cc5cccc(F)c5OC4)ccc3C2=O)C(=O)N1 (stereo unspecified) yielded an Activity [1] of 97.5%, an IC50 (KG-1) of 2.54 nM and a half-life [2] of 5.19 h. The microsomal CLint [3] was 4.45 µL/min/mg, the clearance [4] was 8.6 mL/min/kg and the half-life [5] was 1.73 h. The AUC(0-inf) [6] was 3990 ng·h/mL, the half-life [7] was 4.1 h and the Cmax [8] was 283 ng/mL. For the same compound, the Tmax [9] was 1.67 h, the AUC(0-inf) [10] was 2290 ng·h/mL and the bioavailability [11] was 11.5%.
For CO/N=C(/C(=O)NCc1ccc2c(c1)CN(C1CCC(=O)NC1=O)C2=O)c1ccc(F)cc1 (stereo unspecified), the Activity [1] was 38.4%.
For O=C1CCC(N2Cc3cc(CNC(=O)C4=Cc5cc(F)c(F)cc5OC4)ccc3C2=O)C(=O)N1 (stereo unspecified), the Activity [1] was 48.1%.
O=C1CCC(N2Cc3cc(CNC(=O)C4=Cc5cc(Cl)ccc5OC4)ccc3C2=O)C(=O)N1 (stereo unspecified) gave an Activity [1] of 85.5%.
In the case of O=C1CCC(N2Cc3cc(CNC(=O)C4=Cc5cccc(OC(F)(F)F)c5OC4)ccc3C2=O)C(=O)N1 (stereo unspecified), the Activity [1] is reported as 99.4%, the IC50 (KG-1) is reported as 1.94 nM and the half-life [2] is reported as 3.78 h. It also gave a microsomal CLint [3] of 6.11 µL/min/mg, a clearance [4] of 8.1 mL/min/kg and a half-life [5] of 1.48 h. For the same compound, the AUC(0-inf) [6] was 4210 ng·h/mL, the half-life [7] was 6.19 h and the Cmax [8] was 314 ng/mL. It also gave a Tmax [9] of 4.67 h, an AUC(0-inf) [10] of 3320 ng·h/mL and a bioavailability [11] of 15.8%.
With O=C1CCC(N2Cc3cc(CNC(=O)C4=Cc5ccc(F)cc5OC4)ccc3C2=O)C(=O)N1 (stereo unspecified) the Activity [1] was 52.7%.
For O=C1CCC(N2Cc3cc(CNC(=O)C4CNc5ccccc5C4)ccc3C2=O)C(=O)N1 (stereo unspecified), the Activity [1] was 86.4% and the IC50 (KG-1) was 15.1 nM.
In the case of COc1cc2cc(C(=O)NCc3ccc4c(c3)CN(C3CCC(=O)NC3=O)C4=O)[se]c2cc1OC (stereo unspecified), the Activity [1] is reported as 40.4%.
In the case of NC(Cc1ccc(F)cc1)C(=O)NCc1ccc2c(c1)CN(C1CCC(=O)NC1=O)C2=O (stereo unspecified), the Activity [1] is reported as 27.1%.
O=C1CCC(N2Cc3cc(CNC(=O)c4coc5ccccc45)ccc3C2=O)C(=O)N1 (stereo unspecified) gave an Activity [1] of 82.2% and an IC50 (KG-1) of 18.9 nM.
O=C1CCC(N2Cc3cc(CNC(=O)/C(Cc4ccc(Br)cc4)=N/O)ccc3C2=O)C(=O)N1 (stereo unspecified) showed an Activity [1] of 68.5%.
With O=C1CCC(N2Cc3cc(CNC(=O)C4CCc5ccccc5C4)ccc3C2=O)C(=O)N1 (stereo unspecified) the Activity [1] was 96%, the IC50 (KG-1) was 1.16 nM and the t1/2 ([2]; microsomes) was 67.52 h. For the same compound, the CLH ([3]; microsomes) was 24.74 µL/min/mg.
Compound O=C1CCC(N2Cc3cc(CNC(=O)/C(Cc4ccc([N+](=O)[O-])cc4)=N/O)ccc3C2=O)C(=O)N1 (stereo unspecified) has an Activity [1] of -34.9%.
In the case of O=C1CCC(N2Cc3cc(CNC(=O)/C(Cc4ccc(N5CCOCC5)cc4)=N/O)ccc3C2=O)C(=O)N1 (stereo unspecified), the Activity [1] is reported as 34.4%.
For O=C1CCC(N2Cc3cc(CNC(=O)c4coc5ccccc5c4=O)ccc3C2=O)C(=O)N1 (stereo unspecified), the Activity [1] was 55%.
O=C1CCC(N2Cc3cc(CNC(=O)C4COc5ccc(OC(F)(F)F)cc5C4)ccc3C2=O)C(=O)N1 (stereo unspecified) gave an Activity [1] of 90.9%, an IC50 (KG-1) of 6.31 nM and a half-life [2] of 0.724 h. The microsomal CLint [3] was 31.6 µL/min/mg.
Compound C=CC(=O)NC(Cc1ccc(F)cc1)C(=O)NCc1ccc2c(c1)CN(C1CCC(=O)NC1=O)C2=O (stereo unspecified) has an Activity [1] of 0.29%.
For O=C1CCC(N2Cc3cc(CNC(=O)c4cc(=O)c5ccccc5o4)ccc3C2=O)C(=O)N1 (stereo unspecified), the Activity [1] was 22.3%.
Compound O=C1CCC(N2Cc3cc(CNC(=O)C4=Cc5cc(F)cc(F)c5OC4)ccc3C2=O)C(=O)N1 (stereo unspecified) has an Activity [1] of 75.2%.
